Measurements: patent publication US20240209011A1, “HETEROAROMATIC PHOSPHONIUM SALTS FOR TREATING CANCER” (FLORATEK PHARMA S.A., priority 2021, published 2024)
Marks after values point to notes of the source that are not given here.

Experiments:
K562 CDX = experiment: In vivo tumour inhibition of xenograft leukemia model K562; conditions: K562 CDX in NOG mice; for Optimal T/C (value): day 17 after tumour transplantation, median tumour volume treated/control; for tumour growth inhibition: i.p. daily, T/C at day 17 after tumour transplantation
Protocol: In vivo activity against a number of CDX were evaluated in various nude or SCID mice. Tumour cells were inoculated subcutaneous (s.c) into the mice flank. Mice were randomized into groups when tumours were around 100-200 mm^3. A vehicle control group (2.5-4% DMSO, 5% EtOH, 20% PEG200 in saline) was part of each experiment. Treatment was administered intraperitoneally (i.p.) 3 times a week or daily (qd).
Body weight was measured before each treatment and treatments of individual mice was paused, when the body weight loss was >15%. Tumor volumes were measured 2×/week. Mice were individually sacrificed, when the tumor volume reached the volume specified in the laboratory internal SOP.
The tumour inhibition growth was assessed as the optimal T/C, where T represents the median tumour volume of the treated group and C represents the median tumour volume of the control (vehicle) group. Statistical analysis was performed using two way RM ANOVA with p values […] considered statistically significant.
Test compounds were evaluated for the in vivo inhibition activity against the chronic myelogenous leukemia CDX in NOG mice. 1×10^7 cells were injected s.c. into the left flank at day 0. Mice were stratified into groups of 10 mice each with a mean tumor volume of 109±35 mm^3 and the treatment was administered i.p. daily.

HCC1806 = experiment: Cell viability assay (CellTiter-Blue/CellTiter-Glow); assay type: cell-based; conditions: Homo sapiens; breast carcinoma cell line HCC1806; absolute IC50; 72 h
Summary of the method: (§1)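 Cells seeded, 24 h recovery, compound added for 72 h (37 °C, 5% CO2), viability measured by CellTiter-Blue or CellTiter-Glo. Absolute IC50 from sigmoidal 4-parameter curves of test-versus-control values.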

MDA-MB-231 = experiment: as above; assay type: cell-based; conditions: Homo sapiens; breast carcinoma cell line MDA-MB-231; absolute IC50; 72 h
Summary of the method: as §1

T47D = experiment: as above; assay type: cell-based; conditions: Homo sapiens; breast carcinoma cell line T47D; absolute IC50; 72 h
Summary of the method: as §1

[1] = molecular target: T1, ABL1(E255K)-phosphorylated (Homo sapiens, UniProt P00519, E255K); experiment: KINOMEscan competition binding assay, Kd; conditions: 11-point 3-fold dilution series
T1 construct: purchased Eurofins (KINOMEscan); host or cells: T7 phage in BL21-derived E. coli, or HEK-293
Protocol: (§2) Selected compounds were screened for kinase inhibition using the KINOMEscan™ assay (Eurofins) which is based on a competition binding assay that quantitatively measures the ability of a compound to compete with an immobilized, active-site directed ligand. The assay was performed by combining three components: DNA-tagged kinase; immobilized ligand; and the test compound. The ability of the test compound to compete with the immobilized ligand was measured via quantitative PCR of the DNA tag.
(§3) Kinase-tagged T7 phage strains were prepared in an E. coli host derived from the BL21 strain. E. coli were grown to log-phase and infected with T7 phage and incubated with shaking at 32° C. until lysis. The lysates were centrifuged and filtered to remove cell debris. The remaining kinases were produced in HEK-293 cells and subsequently tagged with DNA for qPCR detection. Streptavidin-coated magnetic beads were treated with biotinylated small molecule ligands for 30 minutes at room temperature to generate affinity resins for kinase assays. The liganded beads were blocked with excess biotin and washed with blocking buffer (SeaBlock (Pierce), 1% BSA, 0.05% Tween 20, 1 mM DTT) to remove unbound ligand and to reduce non-specific binding. Binding reactions were assembled by combining kinases, liganded affinity beads, and test compounds in 1× binding buffer (20% SeaBlock, 0.17×PBS, 0.05% Tween 20, 6 mM DTT). Test compounds were prepared as 111× stocks in 100% DMSO. Kds were determined using an 11-point 3-fold compound dilution series with three DMSO control points. All compounds for Kd measurements are distributed by acoustic transfer (non-contact dispensing) in 100% DMSO. The compounds were then diluted directly into the assays such that the final concentration of DMSO was 0.9%. All reactions performed in polypropylene 384-well plate. Each was a final volume of 0.02 ml. The assay plates were incubated at room temperature with shaking for 1 hour and the affinity beads were washed with wash buffer (1×PBS, 0.05% Tween 20). The beads were then resuspended in elution buffer (1×PBS, 0.05% Tween 20, 0.5 μM nonbiotinylated affinity ligand) and incubated at room temperature with shaking for 30 minutes. The kinase concentration in the eluates was measured by qPCR.
(§4) Binding constants (Kds) were calculated with a standard dose-response curve using the Hill equation: Response=Background+[Signal−Background/i+(Kd^Hill Slope/Dose^Hill Slope)]. The Hill Slope was set to −1. Curves were fitted using a non-linear least square fit with the Levenberg-Marquardt algorithm.

ABL1-nonphosphorylated = molecular target: T2, ABL1-nonphosphorylated (Homo sapiens, UniProt P00519); experiment: KINOMEscan competition binding assay, Kd; conditions: 11-point 3-fold dilution series
T2 construct: purchased Eurofins (KINOMEscan); host or cells: T7 phage in BL21-derived E. coli, or HEK-293
Protocol: as §2, §3, §4

ABL1-phosphorylated = molecular target: T3, ABL1-phosphorylated (Homo sapiens, UniProt P00519); experiment: KINOMEscan competition binding assay, Kd; conditions: 11-point 3-fold dilution series
T3 construct: purchased Eurofins (KINOMEscan); host or cells: T7 phage in BL21-derived E. coli, or HEK-293
Protocol: as §2, §3, §4

T1 sequence (P00519 whole entry E255K): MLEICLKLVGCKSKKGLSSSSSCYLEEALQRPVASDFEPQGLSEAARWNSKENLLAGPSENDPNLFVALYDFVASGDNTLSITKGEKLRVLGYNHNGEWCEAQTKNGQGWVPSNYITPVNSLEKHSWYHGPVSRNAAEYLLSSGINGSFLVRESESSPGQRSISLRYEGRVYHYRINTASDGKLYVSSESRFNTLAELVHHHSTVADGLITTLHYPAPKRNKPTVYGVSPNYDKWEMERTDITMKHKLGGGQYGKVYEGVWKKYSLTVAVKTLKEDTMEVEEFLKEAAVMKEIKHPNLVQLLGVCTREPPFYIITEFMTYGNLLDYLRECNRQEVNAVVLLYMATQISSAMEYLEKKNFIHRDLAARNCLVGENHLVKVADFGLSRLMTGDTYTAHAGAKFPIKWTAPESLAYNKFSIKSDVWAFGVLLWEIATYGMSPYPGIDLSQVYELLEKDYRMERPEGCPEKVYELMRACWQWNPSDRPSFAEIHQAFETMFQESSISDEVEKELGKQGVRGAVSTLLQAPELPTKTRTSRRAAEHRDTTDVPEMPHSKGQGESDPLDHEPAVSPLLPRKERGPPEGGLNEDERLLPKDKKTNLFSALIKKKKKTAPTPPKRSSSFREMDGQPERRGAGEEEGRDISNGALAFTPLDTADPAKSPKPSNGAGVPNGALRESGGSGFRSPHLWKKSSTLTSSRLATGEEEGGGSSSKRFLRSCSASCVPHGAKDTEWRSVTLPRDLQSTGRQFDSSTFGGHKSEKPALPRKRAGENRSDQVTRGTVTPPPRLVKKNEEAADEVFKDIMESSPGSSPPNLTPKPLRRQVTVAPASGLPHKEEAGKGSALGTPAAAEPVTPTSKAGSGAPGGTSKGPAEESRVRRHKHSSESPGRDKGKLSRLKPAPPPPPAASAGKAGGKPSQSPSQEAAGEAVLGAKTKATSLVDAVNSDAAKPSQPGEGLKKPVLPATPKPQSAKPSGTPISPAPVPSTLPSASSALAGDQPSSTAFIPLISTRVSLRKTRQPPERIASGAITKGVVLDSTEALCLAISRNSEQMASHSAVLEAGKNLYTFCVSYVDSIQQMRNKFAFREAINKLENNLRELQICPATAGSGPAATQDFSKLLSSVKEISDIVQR
T3 sequence (P00519 whole entry): as the sequence (P00519 whole entry E255K) above, with K255E counted along it
T2 sequence (P00519 whole entry): as the sequence (P00519 whole entry E255K) above, with K255E counted along it

Weight loss (%) (K562 CDX; 10 mg/kg/inj i.p. qd) | IC50 (HCC1806) [µM] | IC50 (MDA-MB-231) [µM] | IC50 (T47D) [µM] | Kd [1] [µM] | Kd (ABL1-nonphosphorylated) [µM] | Kd (ABL1-phosphorylated) [µM] | Weight loss (%) (K562 CDX; 5 mg/kg/inj i.p. qd) | SMILES | Optimal T/C (value) (K562 CDX; 10 mg/kg/inj i.p. qd) | tumour growth inhibition (K562 CDX) | Optimal T/C (value) (K562 CDX; 5 mg/kg/inj i.p. qd)
8 | – | – | – | – | – | – | – | O=c1cc(-c2ccc(CCCC[P+](c3ccccc3)(c3ccccc3)c3ccccc3)cc2)oc2c(O)c(O)ccc12 [SND118, 4-[4-(7,8-dihydroxy-4-oxo-chromen-2-yl)phenyl]butyltriphenyl-phosphonium bromide] | 58*** | significantly inhibited tumour growth | –
– | 2.3 | 2 | 1.7 | 0.97 | 1.3 | 0.86 | – | O=c1cc(-c2ccc(CCCC[P+](c3ccccc3)(c3ccccc3)c3ccccc3)cc2)oc2c3c(ccc12)OCO3.[Br-] [SND123, 4-[4-(6-oxo-[1,3]dioxolo[4,5-h]chromen-8-yl)phenyl]butyl-triphenylphosphonium bromide] | – | – | –
– | – | – | – | 0.66 | 1.5 | 0.7 | 5 | COc1c(O)ccc2c(=O)cc(-c3ccc(CCCC[P+](c4ccccc4)(c4ccccc4)c4ccccc4)cc3)oc12.[Br-] [SND140, (4-(4-(7-hydroxy-8-methoxy-4-oxo-4H-chromen-2-yl)phenyl)butyl)triphenylphosphonium bromide] | – | significantly inhibited tumour growth | 69*
